Source: patent publication US20230088286A1, “USP7 INHIBITOR FOR USE IN THE TREATMENT OF CANCER” (ALMAC DISCOVERY LIMITED, priority 2020, published 2023)

Assays:
VEGFA mRNA = assay: RNA-seq of hypoxia activated HDF, VEGFA mRNA; format: cell-based, human
Experimental: Afterwards RNA was extracted and analysed by RNA-seq. […] To evaluate which signalling pathways are induced in hypoxia activated fibroblasts, a comparative pathway analysis was performed on of samples coming from both, non-activated (normoxia) and hypoxia activated primary fibroblasts.

MMP-2 = MMP-2 in supernatants of HDF and HUVEC co-culture (Luminex); format: cell-based, human; conditions: supernatants after 14 days
Experimental: Cell culture supernatants from tube formation were collected and MMP-2 levels were measured using Luminex®.
Next, the underlying mechanism of tube formation inhibition was investigated. […] To determine whether secretion of MMP-2 is modulated by USP7 inhibition, supernatants from HUVEC and HDF co-cultures were collected after 14 days.
Concentrations of MMP2 and MMP7 were determined in cell culture supernatants in triplicates using Luminex human cytokine/chemokine multiplex kits (Millipore, St. Charles, Mo., USA) according to the manufacturer's protocol.

[1] = system: immortalized lung fibroblasts (WI38-VA13); assay: sVEGF ELISA in immortalized fibroblasts; format: cell-based, human; conditions: SV-40 immortalized, destabilized p53
Experimental: FIG. 7: USP7 inhibition-mediated decrease in VEGF secretion is dependent on a functional p53 pathway.
For the co-culture experiments, 5×10^4 cancer cells were seeded in transwell in 0.5 mL complete growth medium and placed on the top of 0.1×10^6 fibroblasts plated in 12-well in 1 mL low serum growth media overnight. Following day cancer cells were washed with PBS and media replaced with reduced (1%) serum growth media. 0.5×10^6 PBMC were plated on top of fibroblasts, incubated for 45 min and activated with CD3 (1 μg/ml final concentration) and CD28 (5 μg/ml final concentration). […] Monoculture experiments, 0.1×10^6 cells were seeded in 12-well in 1 mL of complete growth media (cancer cells) or low serum growth media (fibroblasts) and incubated overnight. […] Afterwards, cell culture media was collected, cell debris were removed by centrifugation the concentration of VEGF in the cell culture supernatants was measured using the human/mouse VEGF immunoassay Quantikine ELISA kit (R&D systems, Minneapolis, Minn., USA) according to the manufacturer's instructions. For the intracellular VEGF detection, total protein concentration was determined by BCA (Pierce Chemical, USA) and VEGF levels determined using the same kit described above.

CT-26 tumours = assay: Flow cytometry of tumour infiltrating immune cells, CT-26 model (AD-04); format: in vivo, mouse; conditions: dosed 10 days
Experimental: FIG. 32: USP7 inhibition modulates the tumour microenvironment immune compartment. […] Flow cytometry analysis of tumour infiltrating immune cells in the CT-26 syngeneic model dosed with the USP7 inhibitor for 10 days.
Harvested tumours were collected in HBSS medium, minced and incubated 30 minutes at 37° C. in non-enzymatic cell dissociation buffer followed by mechanical dissociation through a 70 μm filter. Viable cells were then enriched using Ficoll® gradient. All cells suspensions were count and one million viable cells were seeded in 96-well plates in 100 μL of Staining Buffer for acquisition. Non-specific binding was performed using mouse FcR blocking reagent. Viobility 405/452 Fixable Dye (Miltenyi Biotec) was used to assess cell viability. The antibodies directed against the CD45, CD335 (Nkp46), FoxP3 CD8a, CD4, CD3e, CD19, F4/80, CD11c, CD11 b (Miltenyi Biotec), Ly6G and Ly6C (Biolegend) were added. The stained cells were analyzed with a Fortessa X20 cytometer (BD Biosciences).

HIF-1α = assay: Ubiquitination assay, TUBE pull-down of polyubiquitinated HIF-1α; format: cell-based, human; conditions: HDF, hypoxia
Experimental: Given HIF-1α stability is known to be regulated at the protein level by ubiquitination, we investigated whether USP7 inhibition modulates HIF-1α polyubiquitination. […] Cells were harvested, lysed and polyubiquitinated proteins pulled down using two types of Tetra Ubiquitin Binding Entities (TUBES); with equal affinity for K48/K63 or 10 times more affinity for […]. Samples were analysed by immuno-blot using a HIF-1α antibody. […] These findings indicate that USP7 inhibition results in K48 polyubiquitination of HIF-1α and consequently, its proteasomal-mediated degradation.
Cells were lysed in a buffer containing 50 mM Tris-HCl, pH 7.5, 150 mM NaCl, 1 mM EDTA, 1% NP-40, 10% Glycerol, 50 mM NaF, 5 mM sodium pyrophosphate, 10 mM glycerol phosphate, 1 mM sodium orthovanadate, protease and phosphatase inhibitor tablet and 50 uM PR-619. Lysates were pre-cleared by centrifugation at 4° C. for 15 mins at 16,000× g and protein concentration determined using BCA method. 20 ul of samples was taken as input. Pre-cleared supernatant containing 0.5 mg of total protein was added to 20 ul equilibrated Agarose-TUBE 1 or TUBE 2 beads (Life Sensors) and incubated for 2 hours at 4° C. on a rocker platform. Beads were collected by low speed centrifugation (1000-5000× g, 4° C.) for 5 minutes and supernatant taken as FT. Beads were washed twice with 1 ml TBS-T (20 mM Tris-HCl, pH 8.0, 0.15M NaCl, 0.1% Tween-20) and collected by low speed centrifugation. Finally, beads were resuspended in 30 ul of SDS reducing sample buffer and boiled for 10 min at 95° C.

LM CLhep (d) = format: in vitro ADME, dog
LM CLhep (r) = format: in vitro ADME, rat
2C19 = 2C19 (Homo sapiens, UniProt P33261); assay: Cyp inhibition 2C19; format: in vitro ADME; conditions: read-out: Cyps: 2C19
LogD7.4 = format: physicochemical; conditions: pH 7.4
PPB Fu (m) = format: in vitro ADME; conditions: mouse, plasma
Hep CLhep (m) = format: in vitro ADME, mouse
RS4; 11 = assay: RS4;11 cell EC50; format: cell-based; conditions: Homo sapiens
LM CLhep (h) = format: in vitro ADME, human
CYP3A4 = CYP3A4 (Homo sapiens, UniProt P08684); assay: TDI shift CYP3A4; format: in vitro ADME; conditions: value in brackets; shift N/A
Caco-2 permeability = format: in vitro ADME; conditions: human, Caco-2; read-out: Caco-2 Papp ratio
2D6 = 2D6 (Homo sapiens, UniProt P10635); assay: Cyp inhibition 2D6; format: in vitro ADME; conditions: read-out: Cyps: 2D6
Chain of 2D6 (P10635 whole entry): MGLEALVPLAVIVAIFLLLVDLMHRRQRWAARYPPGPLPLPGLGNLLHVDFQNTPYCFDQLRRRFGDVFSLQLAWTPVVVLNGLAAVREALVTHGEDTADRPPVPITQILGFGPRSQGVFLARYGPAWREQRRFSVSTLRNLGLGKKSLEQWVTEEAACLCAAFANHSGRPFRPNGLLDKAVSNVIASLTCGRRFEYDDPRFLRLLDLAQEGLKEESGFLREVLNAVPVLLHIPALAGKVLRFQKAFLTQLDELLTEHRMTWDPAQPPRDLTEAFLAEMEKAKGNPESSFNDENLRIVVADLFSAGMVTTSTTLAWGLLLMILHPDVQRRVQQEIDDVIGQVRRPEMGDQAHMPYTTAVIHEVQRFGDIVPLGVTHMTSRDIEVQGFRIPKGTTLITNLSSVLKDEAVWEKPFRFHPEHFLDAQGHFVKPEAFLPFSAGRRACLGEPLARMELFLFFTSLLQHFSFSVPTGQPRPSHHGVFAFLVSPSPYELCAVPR

Chain of CYP3A4 (P08684 whole entry): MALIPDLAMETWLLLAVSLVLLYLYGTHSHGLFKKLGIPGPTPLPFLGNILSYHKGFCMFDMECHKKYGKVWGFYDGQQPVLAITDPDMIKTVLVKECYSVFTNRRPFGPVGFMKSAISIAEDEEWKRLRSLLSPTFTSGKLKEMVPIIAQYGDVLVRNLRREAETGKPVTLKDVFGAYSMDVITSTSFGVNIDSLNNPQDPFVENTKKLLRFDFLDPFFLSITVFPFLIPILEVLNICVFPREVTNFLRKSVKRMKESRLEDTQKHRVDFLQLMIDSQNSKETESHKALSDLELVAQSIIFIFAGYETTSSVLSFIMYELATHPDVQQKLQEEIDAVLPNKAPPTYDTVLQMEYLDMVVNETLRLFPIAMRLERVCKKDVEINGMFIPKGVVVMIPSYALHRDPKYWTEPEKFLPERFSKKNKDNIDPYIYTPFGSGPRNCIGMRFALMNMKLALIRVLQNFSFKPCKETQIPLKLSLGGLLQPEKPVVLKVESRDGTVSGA
Chain of 2C19 (P33261 whole entry): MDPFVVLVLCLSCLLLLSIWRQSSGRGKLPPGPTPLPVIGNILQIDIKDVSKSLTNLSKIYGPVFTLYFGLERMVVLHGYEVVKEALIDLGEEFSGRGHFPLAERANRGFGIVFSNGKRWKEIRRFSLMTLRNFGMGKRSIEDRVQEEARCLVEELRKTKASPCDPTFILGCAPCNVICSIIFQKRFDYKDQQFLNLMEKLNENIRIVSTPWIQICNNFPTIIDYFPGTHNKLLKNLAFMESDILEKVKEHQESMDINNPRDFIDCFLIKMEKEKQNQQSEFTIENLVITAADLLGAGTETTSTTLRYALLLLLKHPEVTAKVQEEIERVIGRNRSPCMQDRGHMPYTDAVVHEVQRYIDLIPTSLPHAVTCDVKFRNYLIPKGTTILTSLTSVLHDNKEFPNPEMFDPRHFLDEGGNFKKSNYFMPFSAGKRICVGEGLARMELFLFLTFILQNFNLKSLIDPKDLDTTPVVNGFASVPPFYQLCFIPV

C[C@H](CC(=O)N1CCC(O)(Cn2cnc3c(-c4ccc(CN)cc4)n(C)nc3c2=O)CC1)c1ccccc1 [AD-04, (R)-3-(4-(Aminomethyl)phenyl)-6-((4-hydroxy-1-(3-phenylbutanoyl)piperidin-4-yl)methyl)-2-methyl-2H-pyrazolo[4,3-d]pyrimidin-7(6H)-one]
mRNA expression of anti-angiogenic short (191aa) isoform (VEGFA mRNA; hypoxia, 24 hours): up-regulated | mRNA expression of pro-angiogenic long (371aa) isoform (VEGFA mRNA; hypoxia, 24 hours): strongly down-regulated | VEGF mRNA levels (VEGFA mRNA; hypoxic conditions): down-regulated | MMP-2 levels (MMP-2): decreases | VEGF secretion [1]: insensitive | CD4 lymphocytes among TILs (CT-26 tumours): no significant change | cytotoxic T-lymphocytes among TILs (CT-26 tumours): significant increase | macrophages in myeloid cell infiltrate (CT-26 tumours): decrease | K63 specific polyubiquitination of HIF-1α (HIF-1α; versus DMSO control): no difference | K63/K48 polyubiquitinated HIF-1α (HIF-1α; AD-04 1 μM, MG132 10 μM, 1 hour): enhanced the accumulation

CC1(C(=O)N2CCC(O)(Cn3cnc4c(cc(Cl)n4-c4ccc5c(c4)CCO5)c3=O)CC2)CC1 [ADC-159, 6-Chloro-7-(2,3-dihydrobenzofuran-5-yl)-3-((4-hydroxy-1-(1-methylcyclopropane-1-carbonyl)piperidin-4-yl)methyl)-3,7-dihydro-4H-pyrrolo[2,3-d]pyrimidin-4-One]
LM CLhep (d) (LM CLhep (d)): 22 | LM CLhep (r) (LM CLhep (r)): 27 | IC50 (2C19): > 20 µM | LogD7.4 (LogD7.4): 2.5 | fraction unbound (PPB Fu (m)): 0.1 | Hep CLhep (m) (Hep CLhep (m)): 78 | EC50 (RS4; 11): 0.165 µM | LM CLhep (h) (LM CLhep (h)): 9 | IC50 (CYP3A4): > 20 µM | efflux ratio (Caco-2 permeability): 4.1 | IC50 (2D6): > 20 µM
